# PMC12384813
# Like-named read-outs stand apart in the source and are kept apart here.
# Columns and labels:
# SVG p12 cells [1] = experiment: Cellular uptake of ^64Cu-NOTA conjugates; assay type: cell-based, human; settings: Table S1
# U87 MG cells [2] = experiment: Internalization of ^64Cu-NOTA conjugates (glycine-HCl wash); assay type: cell-based, human; settings: Table S2
# Experimental: (§1) U87 MG (1 × 10^5 per well) were seeded in corning 24-well plates and cultured in DMEM with 10% FBS at 37 °C. […] For uptake assay, cells were washed with PBS to collect surface-bound and internalized activity, and for internalization assay, glycine-HCl wash was performed to remove surface bound activity. Moreover, cells were harvested, counted, and radioactivity was measured using a gamma counter. Results were expressed as percentage of total activity (%) in counts per min (CPM)/10^6 cells. For efflux studies, U87 MG cells were incubated with the complexes for 1 h, then washed with PBS, and replaced with fresh medium. The retained activity was measured over 0 to 24 h after washing.
# [3] = test system: SVG p12 normal glial cells
# U87 MG cells [4] = experiment: Efflux kinetics of ^64Cu-NOTA conjugates; assay type: cell-based, human; settings: Table S3
# Experimental: as §1
# SVG p12 cells [5] = experiment: Efflux kinetics of ^64Cu-NOTA conjugates; assay type: cell-based, human; settings: Table S3
# SVG p12 cells [6] = experiment: Internalization of ^64Cu-NOTA conjugates (glycine-HCl wash); assay type: cell-based, human; settings: Table S2
# U87 MG cells [7] = experiment: Cellular uptake of ^64Cu-NOTA conjugates; assay type: cell-based, human; settings: Table S1
# Experimental: as §1
# U87 MG cells [8] = experiment: cells; assay type: cell-based, human
# Experimental: In this procedure, U87 MG (2 × 10^4 cells per well) were seeded in BD falcon transparent 96-well plates and incubated for 24 h.
# [9] = 0.5 h after 1 h incubation and wash
smiles,measurement,setting,value
"N=C(N)NCCC[C@@H]1NC(=O)[C@H](CCCCNC(=O)CNC(=O)COCCOCCNC(=O)CN2CCN(CC(=O)O)CCN(CC(=O)O)CC2)NC(=O)[C@@H](Cc2ccccc2)NC(=O)[C@H](CC(=O)O)NC(=O)CNC1=O [[^64Cu]Cu-NOTA-c(RGDfK), metal not drawn]",Uptake 1h SVG p12,SVG p12 cells [1]; 1 h,2.67 ± 0.20 % total activity (CPM) /106 cells
same,Uptake 2h SVG p12,SVG p12 cells [1]; 2 h,4.02 ± 0.41 % total activity (CPM) /106 cells
same,Uptake 4h SVG p12,SVG p12 cells [1]; 4 h,5.36 ± 0.94 % total activity (CPM) /106 cells
same,Uptake 24h SVG p12,SVG p12 cells [1]; 24 h,7.90 ± 0.41 % total activity (CPM) /106 cells
same,Uptake 48h SVG p12,SVG p12 cells [1]; 48 h,7.30 ± 0.44 % total activity (CPM) /106 cells
same,Internalized activity 1h U87 MG,U87 MG cells [2]; 1 h,3.13 ± 0.31 % total activity (CPM) /106 cells
same,Internalized activity 2h U87 MG,U87 MG cells [2]; 2 h,3.28 ± 0.26 % total activity (CPM) /106 cells
same,Internalized activity 4h U87 MG,U87 MG cells [2]; 4 h,5.00 ± 0.58 % total activity (CPM) /106 cells
same,Internalized activity 24h U87 MG,U87 MG cells [2]; 24 h,11.44 ± 0.62 % total activity (CPM) /106 cells
same,Internalized activity 48h U87 MG,U87 MG cells [2]; 48 h,15.08 ± 0.38 % total activity (CPM) /106 cells
same,EC50,[3],118 ± 8 nM
same,EC50,[3]; 24 h,> 300 nM
same,EC50,[3]; 48 h,> 200 nM
same,Efflux (retained activity) 0.5h U87 MG,U87 MG cells [4]; [9],89.28 ± 6.24 % total activity (CPM) /106 cells
same,Efflux (retained activity) 1h U87 MG,U87 MG cells [4]; 1 h after wash,85.47 ± 3.64 % total activity (CPM) /106 cells
same,Efflux (retained activity) 2h U87 MG,U87 MG cells [4]; 2 h after wash,84.08 ± 7.95 % total activity (CPM) /106 cells
same,Efflux (retained activity) 4h U87 MG,U87 MG cells [4]; 4 h after wash,80.93 ± 6.97 % total activity (CPM) /106 cells
same,Efflux (retained activity) 24h U87 MG,U87 MG cells [4]; 24 h after wash,67.59 ± 2.23 % total activity (CPM) /106 cells
same,Efflux (retained activity) 0.5h SVG p12,SVG p12 cells [5]; [9],94.55 ± 7.92 % total activity (CPM) /106 cells
same,Efflux (retained activity) 1h SVG p12,SVG p12 cells [5]; 1 h after wash,88.05 ± 6.90 % total activity (CPM) /106 cells
same,Efflux (retained activity) 2h SVG p12,SVG p12 cells [5]; 2 h after wash,83.93 ± 6.98 % total activity (CPM) /106 cells
same,Efflux (retained activity) 4h SVG p12,SVG p12 cells [5]; 4 h after wash,73.44 ± 3.92 % total activity (CPM) /106 cells
same,Efflux (retained activity) 24h SVG p12,SVG p12 cells [5]; 24 h after wash,17.62 ± 1.81 % total activity (CPM) /106 cells
same,Internalized activity 1h SVG p12,SVG p12 cells [6]; 1 h,1.72 ±0.14 % total activity (CPM) /106 cells
same,Internalized activity 2h SVG p12,SVG p12 cells [6]; 2 h,1.90 ± 0.14 % total activity (CPM) /106 cells
same,Internalized activity 4h SVG p12,SVG p12 cells [6]; 4 h,3.05 ±0.48 % total activity (CPM) /106 cells
same,Internalized activity 24h SVG p12,SVG p12 cells [6]; 24 h,6.80 ± 0.32 % total activity (CPM) /106 cells
same,Internalized activity 48h SVG p12,SVG p12 cells [6]; 48 h,5.98 ± 0.36 % total activity (CPM) /106 cells
same,Uptake 1h U87 MG,"U87 MG cells [7]; 1 h, 37 °C",2.50 ±1.00 % total activity (CPM) /106 cells
same,Uptake 2h U87 MG,U87 MG cells [7]; 2 h,3.23 ±0.61 % total activity (CPM) /106 cells
same,Uptake 4h U87 MG,U87 MG cells [7]; 4 h,6.08 ± 0.60 % total activity (CPM) /106 cells
same,Uptake 24h U87 MG,U87 MG cells [7]; 24 h,14.11 ± 0.95 % total activity (CPM) /106 cells
same,Uptake 48h U87 MG,U87 MG cells [7]; 48 h,18.95 ± 0.45 % total activity (CPM) /106 cells
same,EC50,U87 MG cells [8]; 24 h,25 ± 7 nM
same,EC50,U87 MG cells [8]; 48 h,32 ± 9 nM
same,EC50,U87 MG cells [8]; 72 h,45 ± 2 nM
